These results are taken from patent US6172066A, “Dihydropyrimidines and uses thereof” (Synaptic Pharmaceutical Corporation, priority 1997, dated 2001).

Structures can show the parent of a compound that is named as a salt.

The target in one test is T1, α1A Human Adrenergic Receptor (Homo sapiens, UniProt P35348).
T1 construct: The entire coding region of α1A (1401 bp); expressed in transfected cells
T1 sequence (P35348 1-466): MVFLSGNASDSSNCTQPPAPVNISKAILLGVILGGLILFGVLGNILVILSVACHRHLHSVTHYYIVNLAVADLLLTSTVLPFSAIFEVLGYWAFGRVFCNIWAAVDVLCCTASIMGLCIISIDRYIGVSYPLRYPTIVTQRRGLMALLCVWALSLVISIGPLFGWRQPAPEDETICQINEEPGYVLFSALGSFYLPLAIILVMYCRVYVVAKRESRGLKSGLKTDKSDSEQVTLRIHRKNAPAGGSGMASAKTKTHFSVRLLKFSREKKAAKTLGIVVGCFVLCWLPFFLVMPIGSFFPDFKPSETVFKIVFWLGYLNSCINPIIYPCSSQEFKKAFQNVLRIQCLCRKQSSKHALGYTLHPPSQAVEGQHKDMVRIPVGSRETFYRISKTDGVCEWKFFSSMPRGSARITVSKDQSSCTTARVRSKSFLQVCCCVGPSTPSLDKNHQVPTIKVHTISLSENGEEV
As to the kind of experiment: Radioligand binding, [3H]prazosin displacement, cloned human α1A receptor (LM(tk-) cell membranes). Particulars: [3H]prazosin 0.5 nM, 37° C., 20 min. The protocol: The activity of compounds at the different human receptors was determined in vitro using cultured cell lines that selectively express the receptor of interest. These cell lines were prepared by transfecting the cloned cDNA or cloned genomic DNA or constructs containing both genomic DNA and cDNA encoding the human α-adrenergic receptors as follows:
The entire coding region of α1A (1401 bp), including 400 base pairs of 5' untranslated sequence (5' UT) and 200 bp of 3' untranslated sequence (3' UT), was cloned into the KpnI site of the polylinker-modifiedpCEXV-3-derived eukaryotic expression vector, EXJ.RH. The construct involved ligating three partial overlapping fragments: a 5' 0.6kb HincII genomic clone, a central 1.8 EcoRI hippocampal cDNA clone, and a 3' 0.6Kb PstI genomic clone. The hippocampal cDNA fragment overlaps with the 5' and 3' genomic clones so that the HincII and PstI sites at the 5' and 3' ends of the cDNA clone, respectively, were utilized for ligation. This full-length clone was cloned into the KpnI site of the expression vector, using the 5' and 3' KpnI sites of the fragment, derived from vector (i.e., pBluescript) and 3'-untranslated sequences, respectively. Stable cell lines were selected as described above. The stable cell line expressing the human α1A receptor used herein was designated L-α1C (old nomenclature) and was deposited with the American Type Culture Collection, 12301 Parklawn Drive, Rockville, Md. 20852, U.S.A. under the provisions of the Budapest Treaty for the International Recognition of the Deposit of Microorganisms for the Purposes of Patent Procedure. The cell line expressing the human α1A receptor was accorded Accession No. CRL 11140, on Sep. 25, 1992.
Transfected cells from culture flasks were scraped into 5 ml of 5 mM Tris-HCl, 5 mM EDTA, pH 7.5, and lysed by sonication. The cell lysates were centrifuged at 1000 rpm for 5 min at 4° C., and the supernatant was centrifuged at 30,000×g for 20 min at 4° C. The pellet was suspended in 50 mM Tris-HCl, 1 mM MgCl2, and 0.1% ascorbic acid at pH 7.5. Binding of the α1 antagonist [^3 H]prazosin (0.5 nM, specific activity 76.2 Ci/mmol) to membrane preparations of LM(tk-) cells was done in a final volume of 0.25 ml and incubated at 37° C. for 20 min. Nonspecific binding was determined in the presence of 10 μM phentolamine. The reaction was stopped by filtration through GF/B filters using a cell harvester. Inhibition experiments, routinely consisting of 7 concentrations of the tested compounds, were analyzed using a non-linear regression curve-fitting computer program to obtain Ki values.
As for “cis-6-(3,4,5-Trifluorophenyl)-1-{N-[2-(4-cyano-4-phenyl-cyclohexylamino)ethyl]}-carboxamido-5-acetyl-4-methoxymethyl-2-oxo-1,2,3,6-tetrahydropyrimidine hydrochloride [Example 2]”, the “hα1A pKi” value is 9.51.

The test is the same for the next values; noted with them: [3H]prazosin 0.5 nM, 37° C., 20 min, read-out: hα1A pKi (converted).
Regarding `COCC1=C(C(=O)OC)C(c2ccc(F)c(F)c2)N(C(=O)NCCN[C@H]2CC[C@@](C#N)(c3ccccc3)CC2)C(=O)N1` (single isomer, unassigned; (+)) [Example 5, (+)-trans-6-(3,4-Difluorophenyl)-1-{N-[2-(4-cyano-4-phenyl-cyclohexylamino)ethyl]}carboxamido-5-methoxycarbonyl-4-methoxymethyl-2-oxo-1,2,3,6-tetrahydropyrimidine hydrochloride], the Ki was 0.126 nM.
The same measure, in the same setting: next, `COCC1=C(C(=O)OC)C(c2ccc(F)c(F)c2)N(C(=O)NCCN[C@H]2CC[C@H](c3ccccn3)CC2)C(=O)N1` (single isomer, unassigned; (+)) [Example 7, (+)-trans-6-(3,4-Difluorophenyl)-1-{N-[2-(4-(2-pyridyl)-cyclohexylamino)ethyl]}carboxamido-5-methoxycarbonyl-4-methoxymethyl-2-oxo-1,2,3,6-tetrahydropyrimidine hydrochloride]: 4.47 nM; `COCC1=C(C(=O)OC)C(c2ccc(F)c(F)c2)N(C(=O)NCCN[C@H]2CC[C@](C#N)(c3ccccc3)CC2)C(=O)N1` (single isomer, unassigned; (+)) [Example 4, (+)-cis-6-(3,4-Difluorophenyl)-1-{N-[2-(4-cyano-4-phenyl-cyclohexylamino)ethyl]}carboxamido-5-methoxycarbonyl-4-methoxymethyl-2-oxo-1,2,3,6-tetrahydropyrimidine hydrochloride]: 0.135 nM; `COCC1=C(C(=O)OC)C(c2ccc(F)c(F)c2)N(C(=O)NCCN[C@H]2CC[C@](C(=O)OC)(c3ccccc3)CC2)C(=O)N1` (single isomer, unassigned; (+)) [Example 11, (+)-cis-6-(3,4-Difluorophenyl)-1-{N-[2-(4-methoxycarbonyl-4-phenyl-cyclohexylamino)ethyl]}carboxamido-5-methoxycarbonyl-4-methoxymethyl-2-oxo-1,2,3,6-tetrahydropyrimidine hydrochloride]: 0.219 nM.
Consider `COC(=O)C1=C(C)NC(=O)N(C(=O)NCCN[C@H]2CC[C@](C#N)(c3ccccc3F)CC2)C1c1ccc(F)c(F)c1` (single isomer, unassigned; (+)) [Example 13, (+)-cis-6-(3,4-Difluorophenyl)-1-{N-[2-(4-cyano-4-(2-fluorophenyl)-cyclohexylamino)ethyl]}carboxamido-5-methoxycarbonyl-4-methyl-2-oxo-1,2,3,6-tetrahydropyrimidine hydrochloride], for which the Ki is 0.102 nM.
Regarding `COCC1=C(C(=O)OC)C(c2ccc(F)c(F)c2)N(C(=O)NCCN[C@H]2CC[C@](C#N)(c3ccccn3)CC2)C(=O)N1` (single isomer, unassigned; (+)) [Example 14, (+)-cis-6-(3,4-Difluorophenyl)-1-{N-[2-(4-cyano-4-(2-pyridyl)-cyclohexylamino)ethyl]}carboxamido-5-methoxycarbonyl-4-methoxymethyl-2-oxo-1,2,3,6-tetrahydropyrimidine hydrochloride], the Ki is 0.933 nM.
As for `CCC1=C(C(N)=O)C(c2ccc(F)cc2F)N(C(=O)NCCN[C@H]2CC[C@](C#N)(c3ccccc3)CC2)C(=O)N1` (single isomer, unassigned; (+)) [Example 3, (+)-cis-5-Carboxamido-6-(2,4-difluorophenyl)-1-{N-[2-(4-cyano-4-phenyl-cyclohexylamino)ethyl]}carboxamido-4-ethyl-2-oxo-1,2,3,6-tetrahydropyrimidine hydrochloride], the Ki is 0.49 nM.
